The subject of data set [1] is HepG2 cells. The settings on record: cited from earlier work.
Data set [2] deals with P. falciparum gametocytes. More on the design: method as in Almela et al 2015. The settings on record: ref Almela et al 2015; read-out: Pf Gametocyte viability (ATP) GC-ATP IC50; cited from earlier work.
In data set [3] the test system is P. falciparum male gametocytes. As to the kind of experiment: P. falciparum Dual Gamete Formation Assay (PfDGFA), male readout (exflagellation). In kind it is cell-based, Plasmodium falciparum NF54. The settings on record: for IC50: this study, read-out: Pf DGFA IC50 MALE. In short, it runs like this: (§1)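 Two sex-specific readouts come from one well: male exflagellation centres recorded by brightfield video right after activation, and female gametes scored by Cy3-anti-Pfs25 fluorescence after 24 h at 28°C.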

Data set [4] deals with HepG2 cells. The data set can be described thus: HepG2 cytotoxicity counter-screen. The settings on record: for Mean TOX: mean of the HepG2 TOX50 values; for DGFA Tox50 HepG2: HepG2 value reported with the DGFA screen. In general terms: The purpose of a counterscreen is to sort out artefacts and off-target activity.
Data set [5] has as its system P. falciparum female gametocytes. As to the kind of experiment: P. falciparum Dual Gamete Formation Assay (PfDGFA), female readout (Pfs25-positive female gametes). In kind it is cell-based, Plasmodium falciparum NF54. The settings on record: for IC50: this study, read-out: Pf DGFA IC50 FEM. In short, it runs like this:
as §1

Data set [6] relates to P. falciparum gametocytes. The data set can be described thus: P. falciparum Gametocyte Viability ATP Assay (PfGCT). In kind it is cell-based, Plasmodium falciparum. The settings on record: Mean TOX HepG2 over GC-ATP IC50; GREEN = >10-fold; RED = <10-fold. An excerpt: Fig 1 The activity of TCAMS compound identified in the Pf DGFA screen. (A) 85 molecules were confirmed active in the Pf DGFA. 58 were previously identified in one or more transmission-blocking screens. […] No molecule was identified with >4.7-fold greater activity against female gametocytes. Abbreviations (IC50 = concentration giving 50% inhibition, PbODA = P. berghei Ookinete Development Assay, PfDGFA = P. falciparum Dual Gamete Formation Assay, PfFGAA = P. falciparum Female Gametocyte Activation Assay, PfGCT = P. falciparum Gametocyte Viability ATP Assay).

Data set [7] has as its system P. falciparum female gametocytes. As to the kind of experiment: P. falciparum Female Gametocyte Activation Assay (PfFGAA). In kind it is cell-based, Plasmodium falciparum. The settings on record: Mean TOX HepG2 over FGAA IC50; GREEN = >10-fold; RED = <10-fold.
For data set [8] the test system is unchanged. The arrangement: method as in Miguel-Blanco et al 2017. The settings on record: ref Miguel-Blanco et al 2017; read-out: Pf female gametogenesis FGAA IC50; cited from earlier work.

Like-named read-outs stand apart in the source and are kept apart here.

As for `Br.c1cc(C2=NC3CCCCC3N2)ccc1OCCCOc1ccc(C2=NC3CCCCC3N2)cc1` (centres unmarked) [TC17], the “GC-ATP TOX50 HepG2” value in the data set on HepG2 cells [1] is given as 25 µM. In addition, the values for the IC50 in data set [2] and in data set [3] were 470 nM and 1130 nM, respectively. Further, the “Cytotox ratio Pf Male” value in data set [3] is on record as 27.3. The “Mean TOX” value with HepG2 cells [4] was determined as 30.89 µM. For the same compound, the “Cytotox ratio Pf Female” value in data set [5] amounted to 3.1. For the same compound, the “Cytotox ratio Pf GC-ATP” value in data set [6] is 65.7.

Regarding `COCCCNC(=S)NN=C(C)c1ccccn1` [TC19], in the data set with HepG2 cells [1], the “GC-ATP TOX50 HepG2” value is 17 µM. Further, the IC50 in data set [2] is 160 nM. Besides, in data set [3], the “Cytotox ratio Pf Male” value worked out at 20.8 and the IC50 was 420 nM. For the same compound, in the data set on HepG2 cells [4], the “DGFA Tox50 HepG2” value came to 0.48 µM and the “Mean TOX” value was found to be 8.74 µM. In data set [5], the “Cytotox ratio Pf Female” value was 21.8 and the IC50 came out at 400 nM. Also, in data set [6], the “Cytotox ratio Pf GC-ATP” value came out at 54.6.

`Br.c1cc(Nc2nc(-c3ccc(-c4csc(Nc5ccncc5)n4)cc3)cs2)ccn1` [TC35]: the “Cytotox ratio Pf FGAA” value in data set [7] is reported as 267.7. Further, the “FGAA TOX50 HepG2” value in the data set with HepG2 cells [1] is on record as 2.26 µM. Moreover, the “GC-ATP TOX50 HepG2” value with HepG2 cells [1] is given as 17.3 µM. In addition, the IC50 in data set [2] was 260 nM; in data set [8], 30 nM; in data set [3], 300 nM; in data set [5] it was 300 nM. For the same compound, the “Cytotox ratio Pf Male” value in data set [3] came to 26.8. The “Mean TOX” value in the data set with HepG2 cells [4] is 8.03 µM. Besides, in data set [5], the “Cytotox ratio Pf Female” value turned out to be 26.8. For the same compound, the “Cytotox ratio Pf GC-ATP” value in data set [6] is listed as 30.9.

Regarding `C=CCN(C(=O)c1ccc(Cl)c([N+](=O)[O-])c1)c1nc(-c2ccccc2)cs1` [TC38], the “Cytotox ratio Pf FGAA” value in data set [7] worked out at 391.2. Besides, the “FGAA TOX50 HepG2” value with HepG2 cells [1] is reported as 100 µM. In addition, the “GC-ATP TOX50 HepG2” value with HepG2 cells [1] is recorded as 25 µM. The IC50 was 110 nM in data set [2], 130 nM in data set [8], 400 nM in data set [3] and 310 nM in data set [5]. The “Cytotox ratio Pf Male” value in data set [3] is reported as 127.1. For the same compound, in the data set on HepG2 cells [4], the “Mean TOX” value is on record as 50.86 µM. Moreover, in data set [5], the “Cytotox ratio Pf Female” value amounted to 164.1. Further, the “Cytotox ratio Pf GC-ATP” value in data set [6] worked out at 462.3.

For the compound `c1ccc2sc(Sc3ncnc4sccc34)nc2c1` [TC45], in data set [7], the “Cytotox ratio Pf FGAA” value amounted to 535.7. Moreover, in the data set on HepG2 cells [1], the “FGAA TOX50 HepG2” value is listed as 100 µM and the “GC-ATP TOX50 HepG2” value is 25 µM. In addition, the IC50 in data set [2] was 500 nM. In addition, the IC50 in data set [8] is 140 nM. Also, in data set [3], the “Cytotox ratio Pf Male” value is 250.0 and the IC50 is 300 nM. Moreover, in the data set with HepG2 cells [4], the “DGFA Tox50 HepG2” value turned out to be 100 µM and the “Mean TOX” value stood at 75.00 µM. In data set [5], the “Cytotox ratio Pf Female” value amounted to 258.6 and the IC50 was 290 nM. Moreover, the “Cytotox ratio Pf GC-ATP” value in data set [6] is 150.0.

For the compound `Nc1cc(C=Cc2ccc([N+](=O)[O-])o2)nc2ccccc12` [TC58], in the data set on HepG2 cells [1], the “GC-ATP TOX50 HepG2” value is given as 11.7 µM. Further, the half-maximal inhibitory concentration (IC50) in data set [2] is 200 nM. Also, in data set [3], the “Cytotox ratio Pf Male” value came out at 44.7 and the IC50 was 160 nM. Further, in the data set on HepG2 cells [4], the “Mean TOX” value came out at 7.15 µM. In addition, in data set [5], the “Cytotox ratio Pf Female” value is 17.9 and the IC50 was determined as 400 nM. In data set [6], the “Cytotox ratio Pf GC-ATP” value turned out to be 35.7.

As to `Cc1sc2ncnc(Sc3nnc(N)s3)c2c1C` [TC60], in data set [7], the “Cytotox ratio Pf FGAA” value is on record as 55.1. For the same compound, in the data set on HepG2 cells [1], the “FGAA TOX50 HepG2” value is recorded as 36.31 µM and the “GC-ATP TOX50 HepG2” value is 25 µM. In data set [2], the IC50 is 300 nM. For the same compound, the IC50 in data set [8] is 770 nM. For the same compound, in data set [3], the “Cytotox ratio Pf Male” value amounted to 30.1 and the IC50 turned out to be 1410 nM. For the same compound, the “Mean TOX” value with HepG2 cells [4] is recorded as 42.45 µM. Also, in data set [5], the “Cytotox ratio Pf Female” value is recorded as 57.4 and the IC50 came out at 740 nM. For the same compound, the “Cytotox ratio Pf GC-ATP” value in data set [6] worked out at 141.5.

With `[O-][s+]1c(Cl)c(-c2ccc(Cl)cc2)c2ccc(Cl)cc21` (centres unmarked) [TC66], in data set [7], the “Cytotox ratio Pf FGAA” value worked out at 347.9. Also, in the data set on HepG2 cells [1], the “FGAA TOX50 HepG2” value was 11.35 µM. Also, the “GC-ATP TOX50 HepG2” value with HepG2 cells [1] was 12.8 µM. Further, the IC50 in data set [2] is 20 nM; in data set [8], 40 nM; in data set [3], 140 nM; in data set [5], 140 nM. In addition, the “Cytotox ratio Pf Male” value in data set [3] stood at 99.4. Also, the “Mean TOX” value in the data set on HepG2 cells [4] worked out at 13.92 µM. Further, the “Cytotox ratio Pf Female” value in data set [5] came out at 99.4. Besides, in data set [6], the “Cytotox ratio Pf GC-ATP” value is recorded as 695.8.

For the compound `Cc1cccc2nc(-c3ccc(-c4cccc(CNCCN5CCNCC5)c4)cc3)[nH]c12.O=C(O)C(F)(F)F` [TC67], the “GC-ATP TOX50 HepG2” value in the data set on HepG2 cells [1] is 13.4 µM. Besides, in data set [2], the IC50 is 840 nM. Moreover, in data set [3], the “Cytotox ratio Pf Male” value was determined as 10.1 and the IC50 was 1870 nM. Moreover, the “Mean TOX” value in the data set on HepG2 cells [4] is on record as 18.84 µM. In data set [5], the “Cytotox ratio Pf Female” value is reported as 2.1 and the IC50 turned out to be 9110 nM. Further, in data set [6], the “Cytotox ratio Pf GC-ATP” value came to 22.4.

In the case of `CN(C)CCCn1c(N)c(-c2nc3ccccc3[nH]2)c2nc(C#N)c(C#N)nc21` [TC72], the “GC-ATP TOX50 HepG2” value in the data set with HepG2 cells [1] is on record as 6.93 µM. Besides, the IC50 in data set [2] is 200 nM. Also, in data set [3], the “Cytotox ratio Pf Male” value is on record as 14.8 and the IC50 turned out to be 510 nM. Besides, in the data set with HepG2 cells [4], the “Mean TOX” value is recorded as 7.53 µM. For the same compound, in data set [5], the “Cytotox ratio Pf Female” value is listed as 5.1 and the IC50 was 1470 nM. For the same compound, in data set [6], the “Cytotox ratio Pf GC-ATP” value amounted to 37.7.

In the case of `CCC1CN2CCc3cc(OC)c(OC)cc3C2CC1CC1NCCc2cc(OC)c(OC)cc21.Cl` (centres unmarked) [TC73], the “FGAA TOX50 HepG2” value with HepG2 cells [1] is listed as 2.24 µM. Also, the “GC-ATP TOX50 HepG2” value in the data set with HepG2 cells [1] was 17.68 µM. The “ODA TOX50 HepG2” value in the data set with HepG2 cells [1] is recorded as 23.9883 µM. Moreover, the IC50 is 120 nM in data set [2], 1820 nM in data set [8], 3530 nM in data set [3] and 750 nM in data set [5]. In the data set with HepG2 cells [4], the “Mean TOX” value is 17.84 µM.

`Cc1cc(Nc2ccncc2)n2nc(C)c(-c3ccc(Cl)cc3)c2n1` [TC79]: the “GC-ATP TOX50 HepG2” value with HepG2 cells [1] is 50 µM. Also, the IC50 in data set [2] is 910 nM. Also, in data set [3], the “Cytotox ratio Pf Male” value was determined as 60.8 and the IC50 is 950 nM. Further, the “Mean TOX” value with HepG2 cells [4] is recorded as 57.77 µM. The “Cytotox ratio Pf Female” value in data set [5] was found to be 5.8. In data set [6], the “Cytotox ratio Pf GC-ATP” value was determined as 63.5.

`Nc1cc(C=Cc2ccc([N+](=O)[O-])s2)nc2ccccc12` [TC80]: the “GC-ATP TOX50 HepG2” value in the data set on HepG2 cells [1] is 7.6 µM. Further, the IC50 in data set [2] was 600 nM. Also, in data set [3], the “Cytotox ratio Pf Male” value was determined as 14.2 and the IC50 is 330 nM. In the data set on HepG2 cells [4], the “Mean TOX” value is listed as 4.68 µM. Besides, in data set [5], the “Cytotox ratio Pf Female” value came out at 4.5 and the IC50 was 1030 nM. Further, in data set [6], the “Cytotox ratio Pf GC-ATP” value was 7.8.

Usually IC50 stands for the point on the concentration scale where inhibition reaches its midpoint.

The record behind these values is PMC10584170, “Machine learning-based phenotypic imaging to characterise the targetable biology of Plasmodium falciparum male gametocytes for the development of transmission-blocking antimalarials” (PLOS Pathogens, 2023).
